In PMC5430407 (ACS Medicinal Chemistry Letters, 2017):

Key:
[1] = biological target: IDO1 in HeLa cells (Homo sapiens, UniProt P14902); assay: HeLa cell-based IDO1/kynurenine assay; settings: calculated using HeLa pIC50; for LLE (lipophilic ligand efficiency): LLE = pIC50 – cLogP
[2] = system: Caco-2 cells; assay: Caco-2 permeability; format: in vitro ADME; settings: A-B, 50 µM, 120 min
[3] = system: CEREP panel of over 50 receptors and enzymes; assay: CEREP panel
[4] = 28-day IND toxicology study in dogs; format: in vivo, dog
[5] = system: CT26 tumor; assay: CT26 tumor growth in immune-compromised mice; format: in vivo, mouse; settings: immune-compromised mice (nu/nu)
[6] = 28-day IND toxicology study in mice; format: in vivo, mouse
[7] = Allometric scaling, predicted human dose; settings: allometric scaling to cover the WB IC50 at trough
[8] = system: plasma kynurenine; assay: PK/PD study in mice, plasma kynurenine; format: in vivo, mouse; settings: wild-type mice, once daily oral dosing at 50 mg/kg

IDO1 in HeLa cells, sequence (P14902 whole entry): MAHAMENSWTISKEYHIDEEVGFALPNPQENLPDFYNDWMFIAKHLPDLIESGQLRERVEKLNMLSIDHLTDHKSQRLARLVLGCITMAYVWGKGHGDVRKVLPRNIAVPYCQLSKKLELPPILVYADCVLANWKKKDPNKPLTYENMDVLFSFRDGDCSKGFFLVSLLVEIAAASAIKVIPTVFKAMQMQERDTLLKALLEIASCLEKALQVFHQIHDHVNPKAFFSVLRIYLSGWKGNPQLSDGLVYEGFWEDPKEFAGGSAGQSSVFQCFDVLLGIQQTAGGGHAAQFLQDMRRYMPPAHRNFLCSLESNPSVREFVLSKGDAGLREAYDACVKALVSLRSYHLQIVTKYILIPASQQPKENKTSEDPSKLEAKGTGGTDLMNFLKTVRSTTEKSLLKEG

Compound	LE (ligand efficiency) [1]	Caco2 Pm [2]	also measured
COCCNc1nonc1/C(=N/O)Nc1ccc(F)c(Br)c1 [Compound 4a]	0.45	44 × (10)^−6 cm/s	–
OCCNc1nonc1/C(=N/O)Nc1ccc(F)c(Br)c1 [Compound 4b]	0.51	31 × (10)^−6 cm/s	LLE (lipophilic ligand efficiency) [1]: 5.8
NCCNc1nonc1/C(=N/O)Nc1ccc(F)c(Br)c1 [Compound 4c]	0.47	1.8 × (10)^−6 cm/s	–
CC(=O)NCCNc1nonc1/C(=N/O)Nc1ccc(F)c(Br)c1 [Compound 4d]	0.45	19 × (10)^−6 cm/s	–
CS(=O)(=O)NCCNc1nonc1C(=NO)Nc1ccc(F)c(Br)c1 [Compound 4e]	–	–	LLE (lipophilic ligand efficiency) [1]: 5.8
NS(=O)(=O)NCCNc1nonc1C(=NO)Nc1ccc(F)c(Br)c1 [Compound 4f, epacadostat]	–	–	in vitro toxicology result, CEREP panel [3]: clean; tolerability [4]: well-tolerated; tumor growth inhibition, treated vs control animals [5]: no difference; tolerability [6]: well-tolerated; predicted oral dosing in humans [7]: 50 mg twice-a-day; plasma kynurenine level reached (basal level of IDO null mice) [8]: ~400 nM
NS(=O)(=O)NCCNc1nonc1C(=NO)Nc1ccc(F)c(Cl)c1 [Compound 4g]	–	4.3 × (10)^−6 cm/s	–
